# Experiments:
# Assay type in all cases: in vivo
# [1] = system: Winter wheat variety AWC 13; test: Wheat seed treatment, greenhouse, root biomass (Example 1); conditions: seed treatment 10g per 1 ton of seed; greenhouse 21° C; 30 days after planting; untreated 0.65
# Description: Wheat seeds were treated with 6-oxo-1,4,5,6 tetrahydropyridazine-3-carboxylic acid (THP) and treated plants to examine the impact on shoot and root biomass. Winter wheat variety AWC 13 seeds were treated with either 6-oxo-1,4,5,6-tetrahydropyridazine-3-carboxylic acid (THP) or 1-methyl 6-oxo-1,4,5,6 tetrahydropyridazine-3-carboxylic acid (MTHP) at an effective rate of 10g diluted in 2 L water plus 0.25% Nouryon wetter and applied to 1 ton of seed. These seed were planted in coarse river sand and grown in a greenhouse under ambient light at the greenhouse at 21° C. Plants were irrigated every other day with water containing 50% strength Hoaglands solution. Plants were assessed for emergence and biomass accumulation 30 days after planting. The plants from seeds treated with 6-oxo-1,4,5,6-tetrahydropyridizin-3-carboxylic acid or 1-methyl 6-oxo-1,4,5,6 tetrahydropyridazine-3-carboxylic acid had larger root biomasses (0.83, 0.85 g, dry weight/plant) compared with plants from untreated seeds (0.65 g dry weight/plant).
# [2] = system: wheat plants (Variety Skyfall); test: Foliar treatment of greenhouse grown wheat, foliar and root biomass (Example 4); conditions: foliar treatment, 30 days later, Zadocks growth stage 22-24
# Description: Wheat, corn and pepper seeds were treated with 6-oxo-1,4,5,6-tetrahydropyridizine-3-carboxylic acid (THP) using the same methodology and growth conditions as described in example 1 and the resulting plants were also treated with a light foliar cover spray using an electric hand-held sprayer. (100 g in 200 L water plus 0.25% Nouryon wetter) of 6-oxo-1,4,5,6 tetrahydropyridazine-3-carboxylic acid (30 days post emergence (wheat at Zadoks GS 14 (see FIG. 1), maize at V2, Pepper at 3-4 leaf stage) and then assessed for root and shoot biomass 45 days later. At 75 days post planting the plants were assessed for root and shoot biomass as measured with dry weight. Greenhouse grown wheat plants (Variety […]) were given foliar treatment of 1-methyl 6-oxo-1,4,5,6 tetrahydropyridazine-3-carboxylic acid (MTHP) or 6-oxo-1,4,5,6 tetrahydropyridazine-3-carboxylic acid (THP), utilizing the same methodology as in example 2. Foliar and root biomass were determined 30 days later at Zadocks growth stage 22-24.
# [3] = system: Wheat plants (Variety AWC 13); test: Foliar treatment of wheat, foliar and root dry biomass (Example 5); conditions: foliar treatment at Zadoks GS 15-20, 30 days after application, mean of 10 plants
# Excerpt: Wheat plants (Variety AWC 13) were given a foliar treatment of 6-oxo-1,4,5,6-tetrahydropyridazine-3-carboxylic acid(THP) or 1-methyl 6-oxo-1,4,5,6 tetrahydropyridazine-3-carboxylic acid (MTHP) and their foliar and root dry biomass determined 30 days after application. The foliar applications were applied at approximately at Zadoks GS 15-20 (see FIG. 1) and assessed 30 days later at Zadoks GS 22-24 (also shown in FIG. 1).
# [4] = system: Field grown wheat plants (Var: AWC 13); test: Foliar treatment of field grown wheat (Example 6); conditions: foliar treatment at Zadoks GS 25-26, 100 g in 200 L water, mean of 10 plants
# Description: Field grown wheat plants (Var: AWC 13) were given foliar treatment at Zadoks GS 25-26 (FIG. 1) of 6-oxo-1,4,5,6 tetrahydropyridazine-3-carboxylic acid (THP) or 1-methyl 6-oxo-1,4,5,6 tetrahydropyridazine-3-carboxylic acid (MTHP) both at 100 g in 200 L water plus 0.25% Nouryon wetter. Plants were grown under standard UK wheat growing cultural practice (https://andb.org.uk/wheatgg). Yield was assessed at harvest.
# [5] = system: Wheat; test: Wheat seed treatment, field grown, root biomass (Example 7); conditions: untreated 0.66
# Description: Wheat seeds were treated with 1-methyl 6-oxo-1,4,5,6 tetrahydropyridazine-3-carboxylic acid treated plants to examine the impact on root biomass for field grown plants. Wheat seeds were treated with 1-methyl 6-oxo-1,4,5,6 tetrahydropyridazine-3-carboxylic acid and field grown. The plants from seeds treated with 1-methyl 6-oxo-1,4,5,6 tetrahydropyridazine-3-carboxylic acid had larger root biomass (0.84 g dry weight/plant) compared with plants from untreated seeds (0.66 g dry weight/plant).
smiles,measurement,setting,value
"CN1N=C(C(=O)O)CCC1=O [MTHP, 1-methyl 6-oxo-1,4,5,6 tetrahydropyridazine-3-carboxylic acid]",root biomass,[1],"0.85 g, dry weight/plant"
same,Dry Weight Shoot,[2]; Con 0.55,0.7 g
same,Dry Weight Root,[2]; Con 1.03,1.64 g
same,Dry Weight Shoot,[3]; Con 0.47,0.98
same,Dry Weight Root,[3]; Con 0.65,2.06
same,Dry Weight Shoot,[4]; Con 0.47,0.98
same,Dry Weight Root,[4]; Con 0.65,2.06
same,root biomass,[5],0.84 g dry weight/plant

# Reference: patent US11800869B2, “Use of 6-oxo-1,4,5,6-tetrahydropyridazine-3-carboxylic acid, 1-methyl 6-oxo-1,4,5,6-tetrahydropyridazine-3-carboxylic acid and 1-alkyl-6-oxo-1,4,5,6-tetrahydropyridazine-3-carboxylic acid for improving growth performance in plants” (Advanced Crop Chem LLP, priority 2020, dated 2023)
